Measured values taken from US20110092509A1, “Pharmaceutical Composition for Prevention or Treatment of Disease Associated with Tear Reduction” (Kissei Pharmaceutical, Co. Ltd., priority 2007, published 2011).
Counter-ions that a name gives are not always drawn.

Legend:
Type in all cases: in vivo, rabbit
Japanese white rabbits [1] = assay: Measurement of quantity of tear secretion in rabbits (filter paper weight, ocular instillation); conditions: for Tear secretion: change before vs 5 min after instillation of 50 μL of 0.1 w/v % solution (phosphate buffer, pH7.4) to both eyes, anesthetized male rabbits, 5 min measurement, mean
Description: (§1) Three male Japanese white rabbits (about 3 kg) were allocated to each group. Each 50 μL of ½ sulfate salt of Compound 1 (0.1% phosphate buffer solution, pH7.4), terbutaline sulfate (0.1% phosphate buffer solution, pH7.4) or a solvent thereof (a phosphate buffer, pH7.4) was administered to both eyes of the rabbit which was anesthetized with pentobarbital (40 mg/kg, i.v.). Two pieces each of pre-weighed filter paper (Wattman No. 41, 0.22 μm thick, 2.5×15 mm) were inserted to the lower conjunctival sac of the right or left eye, and the difference in weight of the filter papers before and after insertion (post-insertion weight−pre-insertion weight) was defined as the quantity of tear secretion. The quantity of tear secretion was measured for 5 min before drug administration and for 5 min at 5 min after drug administration. Fifty (50) μL of a local anesthetic agent, 0.4% oxybuprocaine hydrochloride (Santen Co.), was instilled into eyes 5 min before each measurement. Tear and the instilled local anesthetic were wiped immediately before the filter paper was inserted.
(§2) Filter papers recovered after each measurement were placed into tubes. A phosphate buffer (pH 7.4) (500 μL) was added to each of the tubes, and they were mixed by vortex mixer for 30 sec. After the filter papers were removed and the mixture was centrifuged at 470×g for 5 min, protein concentrations in supernatant were measured using Micro BCA Protein Assay Reagent Kit (Pierce Co.). The quantity of protein in tear was calculated based on the measured protein concentration and quantity of tear secretion. The difference in the quantity of tear secretion before administration of a solvent, ½ sulfate of Compound 1 or terbutaline sulfate and that after administration was defined as a change in the quantity of tear secretion or protein in tear, respectively. Each milligram of the change in the quantity of tear was taken as 1 μL.

Japanese white rabbits [2] = assay: Measurement of quantity of protein in tear in rabbits (Micro BCA Protein Assay); conditions: for Change in protein in tear: change before vs after instillation of 50 μL of 0.1 w/v % solution to both eyes, anesthetized male rabbits, mean
Description: as §1, §2

[3] = test system: PAS positive goblet cells; assay: Mucin secretion from conjunctiva in rabbits: count of PAS positive goblet cells by impression cytology; conditions: 0.1 w/v % instilled; for Count of PAS-positive goblet cells: percentage of the solvent group, decrease indicates facilitated mucin secretion from conjunctiva, mean
Description: In addition, at the same timing of measurement of the quantity of tear secretion, 3 mm diameter cellulose acetate filter paper was pressed on the conjunctiva for 30 sec. by impression cytology method, and periodic acid/Schiff (PAS) staining was performed with the recovered filter papers. After filter papers were cleared and embedded, the number of PAS positive goblet cells existing in a certain visual field of a microscope was counted.
Decreases in the count of PAS positive goblet cells indicate that mucin secretion from the conjunctiva is facilitated. Each value is mean of 4 animals, and ½ sulfate of Compound 1 increased extremely about 30% more in the quantity of tear secretion, about 200% more the quantity of protein in tear and about 50% more mucin secretion from conjunctiva in comparison with the solvent and terbutaline sulfate.

[4] = 0.1 w/v % instilled, rabbits, '% more'

SMILES | Effect on quantity of tear secretion (in words) (Japanese white rabbits [1]; 0.1 w/v % instilled, rabbits) | Tear secretion (Japanese white rabbits [1]) | Effect on quantity of protein in tear (in words) (Japanese white rabbits [2]; 0.1 w/v % instilled, rabbits) | Change in protein in tear (Japanese white rabbits [2]) | Effect on mucin secretion from conjunctiva (in words) ([3]; rabbits) | Count of PAS-positive goblet cells [3] | Increase in quantity of tear secretion in comparison with the solvent and terbutaline sulfate (Japanese white rabbits [1]; [4]) | Increase in quantity of protein in tear in comparison with the solvent and terbutaline sulfate (Japanese white rabbits [2]; [4]) | Increase in mucin secretion from conjunctiva in comparison with the solvent and terbutaline sulfate ([3]; rabbits, '% more')
C[C@H](Cc1ccc2c(c1)OC[C@H](C(=O)O)O2)NC[C@H](O)c1cccc(Cl)c1 [Compound N-5984, 6-[2-(R)-[[2-(R)-(3-chlorophenyl)-2-hydroxyethyl]amino]propyl]-2,3-dihydro-1,4-benzodioxine-2-(R)-carboxylic acid] | extremely increased | 4.42 µL | extremely increased | 2.72 µg | extremely increased | 57.1% | – | – | –
CN(C)C(=O)COc1ccc2c(c1)C[C@@H](NC[C@H](O)c1ccc(O)cc1)CC2 [½ sulfate of Compound 1, 2-[(2S)-2-[[(2R)-2-hydroxy-2-(4-hydroxyphenyl)ethyl]-amino]-1,2,3,4-tetrahydronaphthalen-7-yloxy]-N,N-dimethyl-acetamide] | – | 4.87 µL | – | 2.57 µg | – | 64.8% | about 30% | about 200% | about 50%
CC(C)(C)NCC(O)c1cc(O)cc(O)c1 (stereo not drawn) [Terbutaline sulfate, reference compound] | – | 3.80 µL | – | 1.04 µg | – | 77.3% | – | – | –
